Results from PubChem BioAssay AID488890 (Southern Research Specialized Biocontainment Screening …, 2010).
Results filed as inconclusive are left out. Calls of active or inactive are those of the source. The rule behind the calls is not given here.

These molecules were tested on Mycobacterium tuberculosis non-replicating, growth inhibition (assay: growth inhibition of non-replicating M. tuberculosis (AID 488890)).

| Structure (SMILES) | IC50 |
| --- | --- |
| COc1ccc(N=N/C(=C\O)C(=O)c2ccco2)cc1 | 21.5 µM (inactive) |
| O=C(CNC(=O)c1ccco1)OCc1ccc(C(=O)Oc2ccccc2)cc1 | 8.17 µM |
| CCc1nnc(NC(=O)CN2CCN(Cc3ccc(F)cc3)CC2)s1 | 47 µM (inactive) |
| Cc1ccc(NC(=O)COc2ccc3c(c2)CCC3)nc1 | 6.66 µM |
| COC(=O)c1ccc(CSc2nnc(-c3ccncc3)o2)o1 | 7.22 µM |
| CCOC(=O)c1ccc(NC2=CC(=O)C(=O)c3ccccc32)cc1 | 9.94 µM |
| COc1ccc(C(=O)NCC(=O)N/N=C/c2ccc([N+](=O)[O-])o2)cc1OC | 4.97 µM |
| O=C(Nc1ncc(Cc2ccccc2Cl)s1)C1=NCCN1 | 4.18 µM |
| O=C(NN=C(Cc1ccccc1)Cc1ccccc1)c1ccncc1 | 0.35 µM |
| COc1cccc(-c2nnc(NC(=O)c3ccc(S(=O)(=O)N4CCOCC4)cc3)o2)c1 | 18.7 µM (inactive) |
| CCOc1ccc(OCC(=O)OCc2cc(=O)n3cc(Br)ccc3n2)cc1 | 8.96 µM |
| Cc1cc(CC(C)C)n(-c2nc3ccccc3c(=O)n2OCC(N)=O)n1 | 16.1 µM (inactive) |
| COc1ccc(/C=N/Nc2cc(C)nc(-n3nc(C)cc3C)n2)c(OC)c1 | 3.3 µM |
| CCOc1ccc(C(=O)CCN2CCCCCC2)cc1 | 2.44 µM |
| CC1CC(C)CN(CCOCCSc2ccc(Cl)cc2)C1 (stereo unspecified) | 30.7 µM (inactive) |
| O=C(NCC1CCCCC1)c1ccco1 | 2.18 µM |
| N#C/C(N=Nc1ccccc1O)=N\Nc1ccccc1O | 2.67 µM |
| N#Cc1ccc(CSc2nnc(-c3cccnc3)o2)cc1 | 11.5 µM (inactive) |
| CC(C)(C)c1ccc(Cn2c(=N)n(CC(O)c3ccco3)c3ccccc32)cc1 (stereo unspecified) | 7.36 µM |
| CC(C)(C)OC(=O)N/N=C\c1ccc(OC(=O)c2ccco2)cc1 | 12.6 µM (inactive) |
| COc1cc(C=O)ccc1OCCCCOc1ccccc1[N+](=O)[O-] | 27.6 µM (inactive) |
| C/C(=N\Nc1ccc(Cl)cc1)c1c(O)cc(C)oc1=O | 3.61 µM |
| CSCCOC(=O)COc1ccc(/C=N/NC(=O)c2c(Cl)cnn2C)cc1 | 8.85 µM |
| COc1ccc(C(CCNCc2ccc(OC(C)C)cc2)C(C)C)cc1 (stereo unspecified) | 10.2 µM (inactive) |

| Structure (SMILES) | IC50 |
| --- | --- |
| O=C(N/N=C\c1ccco1)c1cncc(Br)c1 | 38.1 µM (inactive) |
| Cc1ccc(N=Nc2c(C)[nH]n(C(N)=S)c2=O)cc1C | 0.57 µM |
| CC1=NN(C(=O)c2ccc(C)o2)C(O)(c2ccccc2)C1 (stereo unspecified) | 3.05 µM |
| CC1(C)CC(=O)c2cc(C(=O)NNc3ccccc3)c(=O)n(-c3ccccc3)c2C1 | 7.49 µM |
| N/N=C(/Cc1nc2ccccc2[nH]1)c1ccc([N+](=O)[O-])cc1 | 1.06 µM |
| Cc1ccc(NC(=O)c2ccc([N+](=O)[O-])o2)c(C)c1 | 8.9 µM |
| O=C(c1cc2ccccc2o1)c1nc2c(n1O)CCCCC2 | 12.8 µM (inactive) |
| O=C(NCCCN1CCOCC1)c1ccc(CSc2ccc(Cl)cc2)cc1 | 29 µM (inactive) |
| O=C(N/N=C/c1cc(Br)ccc1O)c1ccccc1Cl | 0.48 µM |
| O=C1/C(=C\c2ccco2)SC(=S)N1c1ccc(O)cc1 | 33.3 µM (inactive) |
| CCOC(=O)c1csc(-c2snnc2C)n1 | 5.09 µM |
| O=C(N/N=C\c1ccc([N+](=O)[O-])s1)C1COc2ccccc2O1 (stereo unspecified) | 4.94 µM |
| Cc1ccccc1NCC(=O)N/N=C\c1ccc([N+](=O)[O-])s1 | 3.57 µM |
| O=C(Nc1nnc(C2=COCCO2)o1)c1cccc(C(F)(F)F)c1 | 17.7 µM (inactive) |
| CN1CCN(C2Cc3ccccc3Sc3cc(C(F)(F)F)ccc32)CC1 (stereo unspecified) | 12 µM (inactive) |
| COc1ccc(OC(=O)c2cc3cc(Cl)ccc3oc2=O)cc1 | 10.1 µM (inactive) |
| CCOC(=O)C1=C(c2ccccc2)NC(N)=NC1c1ccc(OCc2ccc(C(=O)OC)cc2)cc1 (stereo unspecified) | 5.85 µM |
| Cc1ccc(-c2nnc(Cc3ccc([N+](=O)[O-])cc3)o2)cc1 | 1.77 µM |
| Cc1cc(C(=O)NNc2cc(Cl)ccc2Cl)no1 | 18.7 µM (inactive) |
| O=C(O)c1ccccc1C(=O)NNc1ccc(Cl)cc1 | 4.09 µM |
| Cc1ccc(-c2nn(-c3ccccc3)cc2/C=N/NC(=O)c2ccncc2)o1 | 6.11 µM |
| O=C(Oc1ccccc1)c1cc2ccccc2o1 | 6.73 µM |
| CCCCCCOC(=O)C(C#N)c1nc2ccccc2nc1N1CCN(CC)CC1 (stereo unspecified) | 13.9 µM (inactive) |
| O=C(c1ccc([N+](=O)[O-])o1)N1CCN(c2nc3ccc(F)cc3s2)CC1 | < 0.1 µM |

| Structure (SMILES) | IC50 |
| --- | --- |
| CN(C)/C=C1/C(=O)N(c2ccc([N+](=O)[O-])cc2)N=C1c1ccccc1 | 17.7 µM (inactive) |
| CC(C)OC(=O)c1c2c(n3ccccc13)C(=O)c1ccccc1C2=O | 9.5 µM |
| COc1ccc(OC(=O)C(C)N2C(=O)c3ccccc3C2=O)cc1 (stereo unspecified) | 12.3 µM (inactive) |
| O=C(OCC#CCSc1nnc(-c2ccncc2)o1)c1cccs1 | 4.13 µM |
| CCc1cc2c3c(c1)C(C)CC(C)(C)N3C(=O)/C2=C1\SC(=O)NC1=O (stereo unspecified) | 21.5 µM (inactive) |
| O=C(N/N=C(\c1ccccc1)c1cccnc1)c1cccc(F)c1 | 3.88 µM |
| CCOc1ccc2nc(/N=C/c3nc(-c4ccccc4)oc3O)sc2c1 | 6.2 µM |
| COC(=O)CCSCc1cn2cc(Cl)ccc2n1 | 32 µM (inactive) |
| CN1CC(=O)NC1=NC(=O)C12CC3CC(CC(C3)C1)C2 | 4.08 µM |
| Cc1ccc(C(=O)N/N=C\c2ccc([N+](=O)[O-])s2)cn1 | 3.36 µM |
| CC(CN1CCOCC1)OC(=O)c1ccc2c(c1)OCCO2 (stereo unspecified) | 33.5 µM (inactive) |
| CCN(CC)CCSc1nnc2c3cc(C)ccc3n(Cc3ccccc3)c2n1 | 14.3 µM (inactive) |
| Cc1ccc(C(C)NC(=O)c2cc3ccccc3oc2=O)cc1C (stereo unspecified) | 3.07 µM |
| CCCCn1c(=O)c(C(=O)Nc2ncccc2C)c(O)c2ccccc21 | 3.81 µM |
| CC(C)CCNCC(O)CON=C1c2ccccc2-c2ccccc21 (stereo unspecified) | 9.29 µM |
| O=C1C(Nc2ccccc2)=C/C(=N/S(=O)(=O)c2cccs2)c2ccccc21 | 12 µM (inactive) |
| Cc1nc([N+](=O)[O-])c(Br)n1CC(=O)c1ccc2ccccc2c1 | 7.54 µM |
| O=C(Nc1cccc2ccccc12)c1ccc([N+](=O)[O-])o1 | 2.11 µM |
| Cc1cc(NCc2ccccn2)n2nc(C)c(-c3ccccc3)c2n1 | 1.82 µM |
| O=C(Nc1cccnc1)c1cc(Cl)ccc1Cl | 18.8 µM (inactive) |
| O=C1C=CC(O)(c2cc(=O)c3c(O)cc(O)cc3o2)C=C1 | 2.61 µM |
| c1ccc(Nc2nc(-c3ccccn3)cs2)cc1 | 2.66 µM |
| O=C1CC(N2CCSCC2)C(=O)N1CCc1ccccc1 (stereo unspecified) | 19.1 µM (inactive) |
| Cc1ccccc1OCCCCc1c(C)n[nH]c1C | 13.1 µM (inactive) |

| Structure (SMILES) | IC50 |
| --- | --- |
| O=C(NCc1cccs1)c1ccc([N+](=O)[O-])cc1 | 2.84 µM |
| Cc1ccc(C(=O)Nc2nnc(C3=COCCO3)o2)cc1C | 9.19 µM |
| O=C(Nc1cccc(S(=O)(=O)N2CCCCC2)c1)c1ccc([N+](=O)[O-])o1 | 4.07 µM |
| Cc1cc(C)n2[nH]c(=O)c(N=Nc3cccc(C(F)(F)F)c3)c2n1 | 4.14 µM |
| CCc1ccc(OCC(=O)c2c(O)c3ccccc3oc2=O)cc1 | 9.35 µM |
| CN(C)CCNc1c2c(c(C#N)c3nc4ccccc4n13)CCCC2 | 14.5 µM (inactive) |
| Cc1ccnc(NC(=O)CCc2c[nH]c3ccccc23)c1 | 5.51 µM |
| O=Cc1c(NCc2ccco2)nc2ccccn2c1=O | 4.93 µM |
| Cc1cccc(C2=N/C(=C\c3cccnc3)C(=O)O2)c1 | 12.8 µM (inactive) |
| COc1cc(/C=N/Nc2ccc(Cl)c(C(=O)O)c2)ccc1OC(=O)c1cccs1 | 8.27 µM |
| CCOC(=O)c1cc(-c2csc(COc3ccccc3Cl)n2)on1 | < 0.1 µM |
| Cc1cc(N2CCN(c3ccccc3)CC2)nc(-n2nc(C)cc2C)n1 | 6.28 µM |
| COc1ccc(NC(=O)c2cnc(SC)nc2)cc1 | 28.9 µM (inactive) |
| Cc1cnc(C(=O)NNC(=O)c2ccc(Br)cc2)cn1 | 4.88 µM |
| O=C(CCN1C(=O)/C(=C/c2ccccc2Cl)SC1=S)N1CCCC1 | 7.03 µM |
| CCn1nnc(NC(=O)c2ccc(-c3ccc(Cl)cc3)o2)n1 | 3.07 µM |
| O=C(O)CCCCCN1C(=O)CSC1=S | 19.9 µM (inactive) |
| Cc1cc([N+](=O)[O-])ccc1NC(=O)Nc1ccc(F)cc1F | 21.9 µM (inactive) |
| O=C(NCc1ccco1)c1nc2ccccc2s1 | 4.22 µM |
| COc1cc(NCCC(=O)c2cccs2)c(OC)cc1Cl | 4.04 µM |
| NC(=O)c1ccc(N=Cc2ccc([N+](=O)[O-])s2)cc1 | 11.8 µM (inactive) |
| NC(=O)CN1CCN(C2CC(=O)N(CCc3ccccc3)C2=O)CC1 (stereo unspecified) | 19.9 µM (inactive) |
| CC(C)(C)c1ccc(-c2nc(C#N)c(NCCCn3ccnc3)o2)cc1 | 38.2 µM (inactive) |
| Cc1ccc(-c2nc3ccccn3c2Nc2ccccc2)o1 | 8.4 µM |

| Structure (SMILES) | IC50 |
| --- | --- |
| CCOC(=O)N1CCC(N2CCCC(C(=O)c3ccc4cc(OC)ccc4c3)C2)CC1 (stereo unspecified) | 18.7 µM (inactive) |
| Cc1ccccc1NC(=O)c1nc[nH]c1C(=O)NCc1ccccc1 | 23.7 µM (inactive) |
| COc1cccc(COC(=O)CCNC(=O)c2ccc(Cl)cc2)c1OC | 11.8 µM (inactive) |
| O=C(Nc1c(F)cc(F)cc1Br)c1cc(-c2ccccc2)on1 | 6.29 µM |
| Cc1ccccc1OCC(=O)OCC(=O)c1ccc[nH]1 | 21.2 µM (inactive) |
| O=C(Nc1ccccc1F)c1ccc(CSc2ccccc2)o1 | 4.4 µM |
| O=C(N/N=C/C=C/c1ccccc1)c1ccncc1 | 0.92 µM |
| COc1ccc(-c2nc(C=O)cs2)cc1 | 5.84 µM |
| COc1cccc(OCC(=O)NNC(=O)C(=O)Nc2cccc(C)c2)c1 | 6.72 µM |
| CCCCOC(=O)C1CCCC(C(=O)OCCCC)N1 (stereo unspecified) | 4.91 µM |
| Cc1cc(N2CCC(C)CC2)nc(-n2nc(C)cc2C)n1 | 0.83 µM |
| Cc1nnc(N/N=C/c2ccc(-c3ccccc3F)o2)n1N | 10.6 µM (inactive) |
| COc1ccc(OC(=O)CCc2c[nH]c3ccccc23)cc1 | 3.37 µM |
| Cc1ccc(OC(=O)c2sc3ncn(C)c(=O)c3c2C)cc1 | 14.2 µM (inactive) |
| COc1ccccc1C1=Nn2c(nnc2C2CCCCC2)SC1 | 13.9 µM (inactive) |
| CCCCNS(=O)(=O)c1ccc(OCC(=O)OC)cc1 | 15.6 µM (inactive) |
| Cc1cc(=O)n2cccc(O)c2n1 | 6.1 µM |
| Cc1cc(C)cc(NC(=O)COC(=O)CC2CCCC2)c1 | 21.5 µM (inactive) |
| O=C(Nc1ncc2c(n1)-c1ccccc1OC2)c1ccc(F)cc1 | 4.39 µM |
| Cc1ccc2[nH]c3c(c2c1)CCCC3NCCO (stereo unspecified) | 13.7 µM (inactive) |
